Assay results reported in patent publication US20230265151A1, “GIP/GLP1 CO-AGONIST COMPOUNDS” (priority 2020, published 2023).
Read-outs that look alike come from different tables or passages of the source. *1 amine or outer side, *2 acyl side, *3 side chain or, on linkers, in order; H or OH if unused. Where a SMILES comes first, the peptide text is derived from it. Side-chain parts run from the residue outwards. [ ]: non-standard residue; d: D form. The star is where a group is joined. αMePhe(2-F) = C[C@](N)(Cc1ccccc1F)C(=O)O; γGlu = O=C(O)[C@H](CCC(=O)[*:2])N[*:1]; αMeY = C[C@](N)(Cc1ccc(O)cc1)C(=O)O; 4Pal = N[C@@H](Cc1ccncc1)C(=O)O; αMeL = CC(C)C[C@](C)(N)C(=O)O; Lauroyl = CCCCCCCCCCCC(=O)*; Orn = NCCC[C@H](N)C(=O)O; AEEA = NCCOCCOCC(=O)O; Aib = CC(C)(N)C(=O)O

Legend:
Assay type in all cases: cell-based
hGIPR = target: T1, hGIPR (Homo sapiens, UniProt P48546); experiment: Functional cAMP formation (HTRF) in HEK-293 clonal cells expressing hGIPR, 0.1% bovine casein, without or with 1.0% human serum albumin; details: 37° C.; for Emax: percent of maximal response to GIP(1-42)NH2, read-out: hGIPR Emax, % ± SEM; for EC50: geometric mean, read-out: hGIPR EC50, nM (SEM, n)
T1 construct: expressed in transfected cells
T1 sequence (P48546 22-466): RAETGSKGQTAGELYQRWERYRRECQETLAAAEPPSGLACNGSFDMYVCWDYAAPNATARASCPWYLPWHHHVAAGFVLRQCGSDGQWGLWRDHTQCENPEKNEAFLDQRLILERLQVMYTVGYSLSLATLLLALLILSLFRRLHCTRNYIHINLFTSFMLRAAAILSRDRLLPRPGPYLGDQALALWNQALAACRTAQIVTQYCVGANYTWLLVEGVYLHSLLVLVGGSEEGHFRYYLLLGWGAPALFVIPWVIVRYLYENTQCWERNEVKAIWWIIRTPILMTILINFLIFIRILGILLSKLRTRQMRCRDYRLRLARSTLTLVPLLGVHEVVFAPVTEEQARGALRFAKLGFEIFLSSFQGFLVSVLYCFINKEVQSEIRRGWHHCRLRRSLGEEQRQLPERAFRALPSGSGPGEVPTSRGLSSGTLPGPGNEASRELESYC
Procedure, shortened: (§1)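 Cells were stimulated with peptide for 30 min at 37° C, then lysed in buffer carrying cAMP-d2 and anti-cAMP Eu3+-cryptate for a competitive HTRF read after at least 60 min at room temperature. The 665/620 nm ratio was converted to nM cAMP against a standard curve.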

hGCGR = target: T2, hGCGR (Homo sapiens, UniProt P47871); experiment: Functional cAMP formation (HTRF) in HEK-293 clonal cells expressing hGCGR, 0.1% bovine casein, without or with 1.0% human serum albumin; details: 37° C., geometric mean, read-out: hGCGR EC50, nM (SEM, n)
T2 construct: expressed in transfected cells
Procedure, shortened: as §1

hGLP-1R = hGLP-1R (Homo sapiens, UniProt P43220); experiment: Functional cAMP formation (HTRF) in HEK-293 clonal cells expressing hGLP-1R, 0.1% bovine casein, without or with 1.0% human serum albumin; parameters: expressed in transfected cells; details: 37° C.; for Emax: percent of maximal response to GLP-1(7-36)NH2, read-out: hGLP-1R Emax, % ± SEM; for EC50: geometric mean, read-out: hGLP-1R EC50, nM (SEM, n)
Procedure, shortened: as §1

[1] = HEK293, 0.1% bovine casein and 1.0% human serum albumin
[2] = HEK293, cAMP, 0.1% bovine casein, arithmetic mean
[3] = cAMP, 0.1% bovine casein (no human serum albumin)
[4] = 0.1% bovine casein and 1.0% human serum albumin

T2 sequence (P47871 26-477): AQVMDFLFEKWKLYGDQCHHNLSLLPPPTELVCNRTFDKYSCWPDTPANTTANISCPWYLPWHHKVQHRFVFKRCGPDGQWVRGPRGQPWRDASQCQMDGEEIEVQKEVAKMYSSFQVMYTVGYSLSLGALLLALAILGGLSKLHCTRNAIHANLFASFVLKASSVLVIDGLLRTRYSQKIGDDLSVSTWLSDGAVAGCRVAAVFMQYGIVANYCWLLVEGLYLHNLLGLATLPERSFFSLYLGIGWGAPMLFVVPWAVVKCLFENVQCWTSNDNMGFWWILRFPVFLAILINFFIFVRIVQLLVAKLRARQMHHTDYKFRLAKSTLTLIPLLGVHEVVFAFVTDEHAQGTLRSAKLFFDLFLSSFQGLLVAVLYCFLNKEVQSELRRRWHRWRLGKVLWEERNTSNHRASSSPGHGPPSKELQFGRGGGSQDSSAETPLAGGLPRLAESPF
Sequence of hGLP-1R (P43220 24-463): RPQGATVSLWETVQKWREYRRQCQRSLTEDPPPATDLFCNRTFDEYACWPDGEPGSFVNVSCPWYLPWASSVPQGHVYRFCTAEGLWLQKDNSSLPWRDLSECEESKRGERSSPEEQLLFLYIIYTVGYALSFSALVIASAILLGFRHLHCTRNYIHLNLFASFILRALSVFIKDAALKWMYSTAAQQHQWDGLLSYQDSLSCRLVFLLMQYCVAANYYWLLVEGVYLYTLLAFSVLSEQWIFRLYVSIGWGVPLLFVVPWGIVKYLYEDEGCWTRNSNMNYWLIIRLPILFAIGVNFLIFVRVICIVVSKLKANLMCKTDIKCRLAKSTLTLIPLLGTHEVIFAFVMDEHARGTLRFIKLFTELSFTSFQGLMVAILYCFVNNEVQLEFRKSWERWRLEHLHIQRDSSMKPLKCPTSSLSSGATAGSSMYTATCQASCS

Structure (SMILES) | Emax (hGIPR; [1]) | Emax (hGIPR; [2]) | EC50 (hGIPR; [3]) | EC50 (hGCGR; [4]) | EC50 (hGCGR; [3]) | Emax (hGLP-1R; [1]) | Emax (hGLP-1R; [2]) | EC50 (hGIPR; [4]) | EC50 (hGLP-1R; [3]) | EC50 (hGLP-1R; [4])
CCCCCCCCCCCC(=O)N[C@@H](CCC(=O)NCCOCCOCC(=O)NCCOCCOCC(=O)NCCCC[C@H](NC(=O)[C@H](CCCN)NC(=O)[C@H](CC(=O)O)NC(=O)[C@H](CC(C)C)NC(=O)[C@](C)(CC(C)C)NC(=O)[C@@H](NC(=O)[C@H](CO)NC(=O)[C@H](Cc1ccc(OC)cc1)NC(=O)[C@H](CC(=O)O)NC(=O)[C@H](CO)NC(=O)[C@@H](NC(=O)[C@](C)(Cc1ccccc1F)NC(=O)[C@@H](NC(=O)CNC(=O)[C@H](CCC(=O)O)NC(=O)C(C)(C)NC(=O)[C@@H](N)Cc1ccc(O)cc1)[C@@H](C)O)[C@@H](C)O)[C@@H](C)CC)C(=O)N[C@@H](C)C(=O)N[C@@H](CCC(N)=O)C(=O)NC(C)(C)C(=O)N[C@@H](CCCCNC(=O)COCCOCCNC(=O)COCCOCCNC(=O)CC[C@H](NC(=O)CCCCCCCCCCC)C(=O)O)C(=O)N[C@@H](Cc1ccccc1)C(=O)N[C@H](C(=O)N[C@H](CCC(=O)O)C(=O)N[C@@](C)(Cc1ccc(O)cc1)C(=O)N[C@@H](CC(C)C)C(=O)N[C@H](C(=O)N[C@@H](CCC(=O)O)C(=O)NCC(=O)NCC(=O)N1CCC[C@H]1C(=O)N[C@@H](CO)C(=O)N[C@@H](CO)C(=O)NCC(=O)N[C@@H](C)C(=O)N1CCC[C@H]1C(=O)N1CCC[C@H]1C(=O)N1CCC[C@H]1C(=O)N[C@@H](CO)C(N)=O)[C@@H](C)CC)[C@@H](C)CC)C(=O)O [Example 289] | 94.9% | 111% | 0.017 nM | > 9950 nM | > 9950 nM | 170% | 96.7% |  |  | 
CCCCCCCCCCCC(=O)N[C@@H](CCC(=O)NCCOCCOCC(=O)NCCOCCOCC(=O)NCCCC[C@H](NC(=O)[C@H](CCCN)NC(=O)[C@H](CC(=O)O)NC(=O)[C@H](CC(C)C)NC(=O)[C@](C)(CC(C)C)NC(=O)[C@@H](NC(=O)[C@H](CO)NC(=O)[C@H](Cc1ccc(OC)cc1)NC(=O)[C@H](CC(=O)O)NC(=O)[C@H](CO)NC(=O)[C@@H](NC(=O)[C@](C)(Cc1ccccc1F)NC(=O)[C@@H](NC(=O)CNC(=O)[C@H](CCC(=O)O)NC(=O)C(C)(C)NC(=O)[C@@H](N)Cc1ccc(O)cc1)[C@@H](C)O)[C@@H](C)O)[C@@H](C)CC)C(=O)N[C@@H](C)C(=O)N[C@@H](CCC(N)=O)C(=O)NC(C)(C)C(=O)N[C@@H](CCC(=O)O)C(=O)N[C@@H](Cc1ccccc1)C(=O)N[C@H](C(=O)N[C@H](CCC(=O)O)C(=O)N[C@@](C)(Cc1ccc(O)cc1)C(=O)N[C@@H](CC(C)C)C(=O)N[C@H](C(=O)N[C@@H](CCCCNC(=O)COCCOCCNC(=O)COCCOCCNC(=O)CC[C@H](NC(=O)CCCCCCCCCCC)C(=O)O)C(=O)NCC(=O)NCC(=O)N1CCC[C@H]1C(=O)N[C@@H](CO)C(=O)N[C@@H](CO)C(=O)NCC(=O)N[C@@H](C)C(=O)N1CCC[C@H]1C(=O)N1CCC[C@H]1C(=O)N1CCC[C@H]1C(=O)N[C@@H](CO)C(N)=O)[C@@H](C)CC)[C@@H](C)CC)C(=O)O [Example 290] | 93.4% |  |  | > 9950 nM | > 9950 nM | 109% |  | 0.878 nM |  | 
CCCCCCCCCCCC(=O)N[C@@H](CCC(=O)NCCOCCOCC(=O)NCCOCCOCC(=O)NCCCC[C@H](NC(=O)[C@H](CO)NC(=O)[C@@H]1CCCN1C(=O)[C@@H]1CCCN1C(=O)[C@@H]1CCCN1C(=O)[C@H](C)NC(=O)CNC(=O)[C@H](CO)NC(=O)[C@H](CO)NC(=O)[C@@H]1CCCN1C(=O)CNC(=O)CNC(=O)[C@H](CCC(=O)O)NC(=O)[C@@H](NC(=O)[C@H](CC(C)C)NC(=O)[C@](C)(Cc1ccc(O)cc1)NC(=O)[C@@H](CCC(=O)O)NC(=O)[C@@H](NC(=O)[C@H](Cc1ccccc1)NC(=O)[C@H](CCC(=O)O)NC(=O)C(C)(C)NC(=O)[C@H](CCC(N)=O)NC(=O)[C@H](C)NC(=O)[C@H](CCCCNC(=O)COCCOCCNC(=O)COCCOCCNC(=O)CC[C@H](NC(=O)CCCCCCCCCCC)C(=O)O)NC(=O)[C@H](CCCN)NC(=O)[C@H](CC(=O)O)NC(=O)[C@H](CC(C)C)NC(=O)[C@](C)(CC(C)C)NC(=O)[C@@H](NC(=O)[C@H](CO)NC(=O)[C@H](Cc1ccc(OC)cc1)NC(=O)[C@H](CC(=O)O)NC(=O)[C@H](CO)NC(=O)[C@@H](NC(=O)[C@](C)(Cc1ccccc1F)NC(=O)[C@@H](NC(=O)CNC(=O)[C@H](CCC(=O)O)NC(=O)C(C)(C)NC(=O)[C@@H](N)Cc1ccc(O)cc1)[C@@H](C)O)[C@@H](C)O)[C@@H](C)CC)[C@@H](C)CC)[C@@H](C)CC)C(N)=O)C(=O)O [Example 291] | 92.9% |  | 0.012 nM | > 9950 nM | > 9950 nM | 100% | 97.6% | 0.833 nM | 0.207 nM | 
CCCCCCCCCCCC(=O)N[C@@H](CCC(=O)NCCOCCOCC(=O)NCCOCCOCC(=O)NCCCC[C@H](NC(=O)[C@H](CCCN)NC(=O)[C@H](CC(=O)O)NC(=O)[C@H](CC(C)C)NC(=O)[C@](C)(CC(C)C)NC(=O)[C@@H](NC(=O)[C@H](CO)NC(=O)[C@H](CCCCNC(=O)COCCOCCNC(=O)COCCOCCNC(=O)CC[C@H](NC(=O)CCCCCCCCCCC)C(=O)O)NC(=O)[C@H](CC(=O)O)NC(=O)[C@H](CO)NC(=O)[C@@H](NC(=O)[C@](C)(Cc1ccccc1F)NC(=O)[C@@H](NC(=O)CNC(=O)[C@H](CCC(=O)O)NC(=O)C(C)(C)NC(=O)[C@@H](N)Cc1ccc(O)cc1)[C@@H](C)O)[C@@H](C)O)[C@@H](C)CC)C(=O)N[C@@H](C)C(=O)N[C@@H](CCC(N)=O)C(=O)NC(C)(C)C(=O)N[C@@H](CCC(=O)O)C(=O)N[C@@H](Cc1ccccc1)C(=O)N[C@H](C(=O)N[C@H](CCC(=O)O)C(=O)N[C@@](C)(Cc1ccc(O)cc1)C(=O)N[C@@H](CC(C)C)C(=O)N[C@H](C(=O)N[C@@H](CCC(=O)O)C(=O)NCC(=O)NCC(N)=O)[C@@H](C)CC)[C@@H](C)CC)C(=O)O [Example 294] (H-Y[Aib]EGT[αMePhe(2-F)]TSDK([AEEA-AEEA-γGlu-Lauroyl])SI[αMeL]LD[Orn]K([AEEA-AEEA-γGlu-Lauroyl])AQ[Aib]EFI[dE][αMeY]LIEGG-NH2) |  | 105% | 0.00615 nM | > 9950 nM | > 9950 nM |  |  | 0.833 nM | 0.0665 nM | 6.26 nM
CCCCCCCCCCCC(=O)N[C@@H](CCC(=O)NCCOCCOCC(=O)NCCOCCOCC(=O)NCCCC[C@H](NC(=O)[C@H](CCCN)NC(=O)[C@H](CC(=O)O)NC(=O)[C@H](CC(C)C)NC(=O)[C@](C)(CC(C)C)NC(=O)[C@@H](NC(=O)[C@H](CO)NC(=O)[C@H](Cc1ccncc1)NC(=O)[C@H](CC(=O)O)NC(=O)[C@H](CO)NC(=O)[C@@H](NC(=O)[C@](C)(Cc1ccccc1F)NC(=O)[C@@H](NC(=O)CNC(=O)[C@H](CCC(=O)O)NC(=O)C(C)(C)NC(=O)[C@@H](N)Cc1ccc(O)cc1)[C@@H](C)O)[C@@H](C)O)[C@@H](C)CC)C(=O)N[C@@H](C)C(=O)N[C@@H](CCC(N)=O)C(=O)NC(C)(C)C(=O)N[C@@H](CCCCNC(=O)COCCOCCNC(=O)COCCOCCNC(=O)CC[C@H](NC(=O)CCCCCCCCCCC)C(=O)O)C(=O)N[C@@H](Cc1ccccc1)C(=O)N[C@H](C(=O)N[C@H](CCC(=O)O)C(=O)N[C@@](C)(Cc1ccc(O)cc1)C(=O)N[C@@H](CC(C)C)C(=O)N[C@H](C(=O)N[C@@H](CCC(=O)O)C(=O)NCC(=O)NCC(N)=O)[C@@H](C)CC)[C@@H](C)CC)C(=O)O [Example 295] (H-Y[Aib]EGT[αMePhe(2-F)]TSD[4Pal]SI[αMeL]LD[Orn]K([AEEA-AEEA-γGlu-Lauroyl])AQ[Aib]K([AEEA-AEEA-γGlu-Lauroyl])FI[dE][αMeY]LIEGG-NH2; N-terminus assumed) |  |  | 0.0141 nM | > 9950 nM | > 9950 nM |  | 109% | 1.09 nM | 0.167 nM | 10.4 nM
